These results are taken from patent US7947287B2, “Peptides for the treatment of cancer associated with the human papilloma virus (HPV) and other epithelial tumors” (Centro de Ingenieria Genetica y Biotecnolgia, priority 2001, dated 2011).

The test relates to H-125 cells (Non-Small Lung Cell Cancer). The test is described as follows: antitumor effect in human tumors implanted in nude mice. The test is classed as in vivo, BalbC nude mice. The settings on record: H-125 subcutaneous, 1 to 10 mg/Kg every other day for one month, FIG. 6. On the procedure:
For these experiments, 6-8 week old female BalbC nude mice were used. The tumor implantation was performed using H-125 cells (Non-Small Lung Cell Cancer) that were resuspended in saline solution (PBS) at 1000 000 cells/ml. Cell suspension was inoculated subcutaneously in the abdomen. Peptide administration (sequence 1 on the list) was made together with the cells and continued every other day until completing one month of treatment. In this assay, doses ranging between 1 and 10 mg/Kg of weight were evaluated. To examine the antitumor effect, parameters like tumor mass and survival of the animals were evaluated.

Bridges are numbered along the chain shown (N, C = ends). Where no end group is shown, it is not given here.

Consider “CSVRQGPVQKC (disulfide 1-11 (inferred)) [sequence 1 on the list]”, for which the “inhibition of tumor progression” value is “effective in terms of the inhibition of tumor progression”.
